Tests used:
[1] = tested on: Btk signaling in Ramos cells; experiment: Btk Ramos cellular assay (PLCγ2 phosphorylation); format: cell-based; details: Homo sapiens, 1 μM compound
Description: Compounds CNX-85 was assayed in Ramos human Burkitt lymphoma cells. Ramos cells were grown in suspension in T225 flasks, spun down, resuspended in 50 mls serum-free media and incubated for 1 hour. Compound was added to Ramos cells in serum free media to a final concentration of 1, 0.1, 0.01, or 0.001 μM. Ramos cells were incubated with compound for 1 hour, washed again and resuspended in 100 ul serum-free media. Cells were then stimulated with 1 μg of goat F(ab′)2 Anti-Human IgM and incubated on ice for 10 minutes to activate B cell receptor signaling pathways. After 10 minutes, the cells were washed once with PBS and then lysed on ice with Invitrogen Cell Extraction buffer. 16 μg total protein from lysates were loaded on gel and blots were probed for phosphorylation of the Btk substrate PLCγ2.

[2] = molecular target: T1, Btk (Homo sapiens, UniProt Q06187); experiment: Omnia assay for potency against Btk; details: biochemical assay; read-out: IC50 Btk kinase
T1 construct: purchased Invitrogen
Description: The protocol below describes continuous-read kinase assays to measure inherent potency of compounds against active forms of Btk enzyme. The mechanics of the assay platform are best described by the vendor (Invitrogen, Carlsbad, Calif.) on the world wide web at invitrogen.com/site/us/en/home/Products-and-Services/Applications/Drug-Discovery/Target-and-Lead-Identification-and-Validation/KinaseBiology/KB-Misc/Biochemical-Assays/Omnia-Kinase-Assays.html. Briefly, 10× stocks of 5 nM Btk from Invitrogen, 1.13×40 μM ATP (AS001A) and 10 μM (ATP KMapp ˜[…]) Tyr-Sox conjugated peptide substrates (KCZ 1001) were prepared in 1× kinase reaction buffer consisting of 20 mM Tris, pH 7.5, 5 mM MgCl2, 1 mM EGTA, 5 mM β-glycerophosphate, 5% glycerol (10× stock, KBOO2A) and 0.2 mM DTT (DS001A).

[3] = molecular target: T2, HCV NS3/4A wild type (Hepatitis C virus genotype 1b, UniProt P26662); experiment: Mass spectral analysis of intact HCV NS3/4A wild type protease; format: binding; details: 10-fold excess of compound, 1 hr to 3 hrs, MALDI-TOF
T2 construct: The single-chain proteolytic domain (NS4A21-32-GSGS-NS33-631) was cloned into pET-14b; His tag; made in house; host or cells: Escherichia coli BL21
Description: Mass spectrometric analysis of HCV in the presence of Compound 5 was performed using the following protocol: HCV NS3/4A wild type (wt) was incubated for 1 hr at a 10× fold access of Compound 5 to protein. 2 μl aliquots of the samples were diluted with 10 μl of 0.1% TFA prior to micro C4 ZipTipping directly onto the MALDI target using Sinapinic acid as the desorption matrix (10 mg/ml in 0.1% TFA:Acetonitrile 50:50). The instrument was set in linear mode using a pulsed extraction setting of 24,500 and apomyoglobin as the standard to calibrate the instrument.
100 pmols of HCV wild type (Bioenza CA) was incubated with compound for 1 hr and 3 hrs at 10-fold access of Compound 6 to protein. 1 μl aliquots of the samples (total volume of 4.24 ul) were diluted with 10 μl of 0.1% TFA prior to micro C4 ZipTipping directly onto the MALDI target using Sinapinic acid as the desorption matrix (10 mg/ml in 0.1% TFA:Acetonitrile 50:50). Analyses were performed on a Shimadzu Biotech Axima TOF^2 (Shimadzu Instruments) matrix-assisted-laser desorption/ionization Time-of-Flight (MALDI-TOF) mass spectrometer.

[4] = molecular target: HCV NS3/4A 1b protease (Hepatitis C virus genotype 1b, UniProt P26662); experiment: biochemical
Sequence of HCV NS3/4A 1b protease (P26662 1027-1208): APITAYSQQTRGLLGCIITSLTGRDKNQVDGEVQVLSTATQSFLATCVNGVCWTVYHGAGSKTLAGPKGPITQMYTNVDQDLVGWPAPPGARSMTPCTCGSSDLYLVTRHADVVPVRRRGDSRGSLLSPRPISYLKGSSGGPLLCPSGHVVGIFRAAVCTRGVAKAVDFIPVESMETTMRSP
Sequence of HCV NS3/4A 1b protease (P26662 1658-1711): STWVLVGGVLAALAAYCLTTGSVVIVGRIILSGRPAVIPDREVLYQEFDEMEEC
Description: An HCV Protease FRET Assay for HCV NS3/4A 1b Enzyme (IC50_APP) was used. The following protocol was used to generate “apparent” IC50 (IC50_APP) values. […] Protease reactions were immediately started after enzyme addition with the addition of 45 μL of the FRET substrate and monitored for 60-90 minutes at λex485/λem520 in a Synergy4 plate reader from BioTek (Winooski, Vt.).

T1 sequence (Q06187 whole entry): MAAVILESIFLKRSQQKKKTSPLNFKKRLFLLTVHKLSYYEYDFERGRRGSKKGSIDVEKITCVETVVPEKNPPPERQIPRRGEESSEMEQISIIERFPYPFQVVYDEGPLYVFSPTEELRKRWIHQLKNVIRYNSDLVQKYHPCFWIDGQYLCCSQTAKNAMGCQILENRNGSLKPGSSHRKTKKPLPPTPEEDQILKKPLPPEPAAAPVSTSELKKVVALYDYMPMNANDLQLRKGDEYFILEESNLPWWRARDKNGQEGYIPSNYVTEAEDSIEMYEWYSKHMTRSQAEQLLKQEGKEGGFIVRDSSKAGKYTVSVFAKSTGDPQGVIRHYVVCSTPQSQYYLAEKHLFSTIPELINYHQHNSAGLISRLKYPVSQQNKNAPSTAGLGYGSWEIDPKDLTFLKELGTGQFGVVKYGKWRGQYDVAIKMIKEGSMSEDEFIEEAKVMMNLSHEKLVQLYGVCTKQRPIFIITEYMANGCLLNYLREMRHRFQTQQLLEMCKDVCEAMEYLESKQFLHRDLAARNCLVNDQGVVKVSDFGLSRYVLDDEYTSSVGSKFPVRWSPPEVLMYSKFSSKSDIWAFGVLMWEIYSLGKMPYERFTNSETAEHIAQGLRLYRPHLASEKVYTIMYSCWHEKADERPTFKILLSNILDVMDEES
T2 sequence (P26662 1013-1207, looked up, natural form): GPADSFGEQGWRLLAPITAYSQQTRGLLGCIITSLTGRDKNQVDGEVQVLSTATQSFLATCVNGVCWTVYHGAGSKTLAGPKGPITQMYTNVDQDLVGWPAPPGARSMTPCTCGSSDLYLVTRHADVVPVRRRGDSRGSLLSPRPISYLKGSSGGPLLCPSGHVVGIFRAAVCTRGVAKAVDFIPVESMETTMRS

| SMILES | inhibition at 1 µM [1] [%] | IC50 [2] [nM] | adduct formation with HCV protease wild type [3] | IC50 [4] [nM] |
| --- | --- | --- | --- | --- |
| C=CC(=O)Nc1cccc(Nc2cc(Nc3ccc(Oc4ccccc4)cc3)ncn2)c1 [Compound 10, N-{3-[6-(4-phenoxyphenylamino)-pyrimidin-4-ylamino]phenyl}-2 propenamide] | 85 | 1.8 | – | – |
| C=C[C@@H]1C[C@]1(NC(=O)[C@@H]1C[C@@H](Oc2cc(-c3ccccc3)nc3cc(OC)ccc23)CN1C(=O)[C@H](CCC(=O)C=C(C)C)NC(=O)OC(C)(C)C)C(=O)NS(=O)(=O)C1CC1 [Compound 8, tert-butyl-(S)-1-((2S,4R)-2-((1R,2S)-1-(cyclopropylsulfonylcarbamoyl)-2-vinylcyclopropylcarbamoyl)-4-(7-methoxy-2-phenylquinolin-4-yloxy)pyrrolidin-1-yl)-7-methyl-1,5-dioxooct-6-en-2-ylcarbamate] | – | – | adduct of HCV protease with the compound was formed | < 0.5 |

— patent US20100185419A1, “ALGORITHM FOR DESIGNING IRREVERSIBLE INHIBITORS” (Avila Therapeutics, Inc., priority 2008, published 2010)
